Patent US20170349532A1, “CATIONIC LIPID” (Kyowa Hakko Kirin Co., Ltd., priority 2011, published 2017)

Experiment: Average particle diameter of preparation (Zetasizer Nano ZS)
Type: physicochemical
Conditions: average particle diameter of cationic lipid/nucleic acid complex; Example 118 preparation: compound/PEG-DMPE Na/DSPC/cholesterol with apo-b siRNA
Excerpt: Preparations were produced using the compounds obtained in Examples 1 to 117, as follows.
APO-B siRNA was used as the nucleic acid. APO-B siRNA suppresses expression of an apolipoprotein-B (hereinafter, “apo-b”) gene and has a sense strand with the base sequence 5′-GmUCAmUCACACmUGAAmUACCAAmU-3′ (the sugars attached to the bases appended with m are 2′-O-methyl-substituted riboses), and an antisense strand with the base sequence 5′-[…]-3′ (the 5′-end is phosphorylated). The sense strand and the antisense strand were obtained from Nippon EGT, GeneDesign, Inc., Invitrogen or Hokkaido System Science Co., Ltd., and annealed to prepare the nucleic acid (hereinafter, “apo-b siRNA”).
A solution comprising the constituent components was prepared by dissolving each of the weighed samples in 90 vol % ethanol in 8.947/1.059/5.708/13.697 mmol/L [compounds 1 to 117 obtained in Examples 1 to 117/sodium 1,2-dimyristoyl-sn-glycero-3-phosphoethanolamine-N-(methoxy(polyethylene glycol)-2000) (PEG-DMPE Na,N-(carbonylmethoxypolyethylene glycol 2000)-1,2-dimyristoyl-sn-glycero-3-phosphoethanolamine sodium salt, NOF Corporation)/distearoylphosphatidyl choline (DSPC, 1,2-distearoyl-sn-glycero-3-phosphocholine, NOF Corporation)/cholesterol (Avanti Polar Lipids)]. Separately, apo-b siRNA/distilled water (24 mg/mL) was diluted with a Tris-EDTA buffer (200 mM Tris-HCl, 20 mM EDTA, Invitrogen) and a 20 mM citric acid buffer (pH 5.0) to prepare a 1.5 mg/mL apo-b siRNA aqueous solution (2 mM Tris-EDTA/20 mM citric acid buffer, pH 5.0).
The resulting lipid solution was heated to 37° C., and a 100-μL portion was transferred to a preparation container. The apo-b siRNA aqueous solution (100 μL) was then added thereto while being stirred. Then, a 20 mM citric acid buffer (containing 300 mM NaCl, pH 6.0; 200 μL) was added to the lipid nucleic acid mixed suspension (200 μL) while being stirred. The siRNA concentration was brought to 10 μM by dropping a Dulbecco phosphate buffer (DPBS, Invitrogen; 662 μL), and preparations (compositions comprising compounds 1 to 117 and the nucleic acid) were obtained.
The average particle diameter of the complex between the cationic lipis and the nucleic acid in each preparation was measured with a particle diameter measurement device (Malvern; Zetasizer Nano ZS).

Particle diameter of Preparetion [nm] | SMILES
143.8 | CCCCC/C=C\C/C=C\CCCCCCCCCCO[C@@H]1CNC[C@H]1OCCCCCCCCCC/C=C\C/C=C\CCCCC [Compound 8, (3R,4R)-3,4-bis((11Z,14Z)-Icos-11,14-dienyloxy)pyrrolidine]
153.9 | CCCCC/C=C\C/C=C\CCCCCCCCO[C@@H]1CN(C)C[C@H]1OCCCCCCCC/C=C\C/C=C\CCCCC [Compound 10, (3R,4R)-1-Methyl-3,4-bis((9Z,12Z)-octadec-9,12-dienyloxy)pyrrolidine]
135.8 | CCCCC/C=C\C/C=C\CCCCCCCCO[C@H]1CN(C)C[C@H]1OCCCCCCCC/C=C\C/C=C\CCCCC [Compound 11, (3R,4S)-1-Methyl-3,4-bis((9Z,12Z)-octadec-9,12-dienyloxy)pyrrolidine]
161.3 | CCCCCCCC/C=C\CCCCCCCCO[C@@H]1CN(C)C[C@H]1OCCCCCCCC/C=C\CCCCCCCC [Compound 12, (3R,4R)-1-Methyl-3,4-bis((Z)-octadec-9-enyloxy)pyrrolidine]
150.2 | CCCCCCCCCCCCCCO[C@@H]1CN(C)C[C@H]1OCCCCCCCCCCCCCC [Compound 13, (3R,4R)-1-Methyl-3,4-bis(tetradecyloxy)pyrrolidine]
139.3 | CCCCCC/C=C\CCCCCCCCO[C@@H]1CN(C)C[C@H]1OCCCCCCCC/C=C\CCCCCC [Compound 14, (3R,4R)-3,4-bis((Z)-Hexadec-9-enyloxy)-1-methylpyrrolidine]
139.1 | CCCCCCCCCCC/C=C\CCCCCO[C@@H]1CN(C)C[C@H]1OCCCCC/C=C\CCCCCCCCCCC [Compound 15, (3R,4R)-1-Methyl-3,4-bis((Z)-octadec-6-enyloxy)pyrrolidine]
143.2 | CCCCC/C=C\C/C=C\CCCCCCCCCCO[C@@H]1CN(C)C[C@H]1OCCCCCCCCCC/C=C\C/C=C\CCCCC [Compound 16, (3R,4R)-3,4-bis((11Z,14Z)-Icos-11,14-dienyloxy)-1-methylpyrrolidine]
142.6 | CCCCC/C=C\C/C=C\CCCCCCCCO[C@@H]1CN(CC)C[C@H]1OCCCCCCCC/C=C\C/C=C\CCCCC [Compound 17, (3R,4R)-1-Ethyl-3,4-bis((9Z,12Z)-octadec-9,12-dienyloxy)pyrrolidine]
146.4 | CCCCCCCC/C=C\CCCCCCCCO[C@@H]1CN(CC)C[C@H]1OCCCCCCCC/C=C\CCCCCCCC [Compound 18, (3R,4R)-1-Ethyl-3,4-bis((Z)-octadec-9-enyloxy)pyrrolidine]
107.5 | CCCCC/C=C\C/C=C\CCCCCCCC(=O)O[C@@H]1C[N+](C)(C)C[C@H]1OC(=O)CCCCCCC/C=C\C/C=C\CCCCC.[Cl-] [Compound 20, (3R,4R)-1,1-Dimethyl-3,4-bis((9Z,12Z)-octadec-9,12-dienoyloxy)pyrrolidinium chloride]
112.4 | CCCCC/C=C\C/C=C\CCCCCCCCO[C@H]1C[N+](C)(C)C[C@H]1OCCCCCCCC/C=C\C/C=C\CCCCC.[Cl-] [Compound 21, (3R,4,5)-1,1-Dimethyl-3,4-bis((9Z,12Z)-octadec-9,12-dienyloxy)pyrrolidinium chloride]
108.7 | CCCCCCCC/C=C\CCCCCCCC(=O)O[C@@H]1C[N+](C)(C)C[C@H]1OC(=O)CCCCCCC/C=C\CCCCCCCC.[Cl-] [Compound 23, (3R,4R)-1,1-Dimethyl-3,4-bis((Z)-octadec-9-enoyloxy)pyrrolidinium chloride]
160.7 | CCCCC/C=C\C/C=C\CCCCCCCCO[C@@H]1CN(CC(O)CO)C[C@H]1OCCCCCCCC/C=C\C/C=C\CCCCC (stereo partly drawn) [Compound 24, 3-((3R,4R)-3,4-bis((9Z,12Z)-Octadec-9,12-dienyloxy)pyrrolidin-1-yl) propane-1,2-diol]
126.0 | CCCCC/C=C\C/C=C\CCCCCCCCO[C@@H]1CN(C(=O)CN(C)C)C[C@H]1OCCCCCCCC/C=C\C/C=C\CCCCC [Compound 25, (3R,4R)-1-(2-(Dimethylamino)acetyl)-3,4-bis((9Z,12Z)-octadec-9,12-dienyloxy)pyrrolidine]
133.9 | CCCCC/C=C\C/C=C\CCCCCCCC(=O)O[C@@H]1CN(C(=O)CN(C)C)C[C@H]1OC(=O)CCCCCCC/C=C\C/C=C\CCCCC [Compound 26, (3R,4R)-1-(2-(Dimethylamino)acetyl)pyrrolidine-3,4-diyl di((9Z,12Z)-octadec-9,12-dienoate)]

Particle diameter of Preparetion [nm] | SMILES
135.2 | CCCCCCCC/C=C\CCCCCCCC(=O)O[C@@H]1CN(C(=O)CN(C)C)C[C@H]1OC(=O)CCCCCCC/C=C\CCCCCCCC [Compound 27, (3R,4R)-1-(2-(Dimethylamino)acetyl)pyrrolidine-3,4-diyl di((Z)-octadec-9-enoate)]
132.2 | CCCCC/C=C\C/C=C\CCCCCCCCO[C@@H]1CN(C(=O)CCN(C)C)C[C@H]1OCCCCCCCC/C=C\C/C=C\CCCCC [Compound 28, (3R,4R)-1-(3-(Dimethylamino)propanoyl)-3,4-bis((9Z,12Z)-octadec-9,12-dienyloxy)pyrrolidine]
122.5 | CCCCC/C=C\C/C=C\CCCCCCCC(=O)O[C@@H]1CN(C(=O)CCN(C)C)C[C@H]1OC(=O)CCCCCCC/C=C\C/C=C\CCCCC [Compound 29, (3R,4R)-1-(3-(dimethylamino)propanoyl)pyrrolidine-3,4-diyl di((9Z,12Z)-octadec-9,12-dienoate)]
132.7 | CCCCCCCC/C=C\CCCCCCCC(=O)O[C@@H]1CN(C(=O)CCN(C)C)C[C@H]1OC(=O)CCCCCCC/C=C\CCCCCCCC [Compound 30, (3R,4R)-1-(3-(Dimethylamino)propanoyl)pyrrolidine-3,4-diyl di((Z)-octadec-9-enoate)]
100.7 | CCCCC/C=C\C/C=C\CCCCCCCCO[C@@H]1CN(C(=O)[C@@H](N)CCCCN)C[C@H]1OCCCCCCCC/C=C\C/C=C\CCCCC [Compound 31, (3R,4R)-1-((5)-2,6-Diaminohexanoyl)-3,4-bis((9Z,12Z)-octadec-9,12-dienyloxy)pyrrolidine]
154.2 | CCCCC/C=C\C/C=C\CCCCCCCCOCCN(C)CCOCCCCCCCC/C=C\C/C=C\CCCCC [Compound 32, N-Methyl-N,N-bis(2-((9Z,12Z)-octadec-9,12-dienyloxy)ethyl)amine]
152.1 | CCCCCCCC/C=C\CCCCCCCCOCCN(C)CCOCCCCCCCC/C=C\CCCCCCCC [Compound 33, N-Methyl-N,N-bis(2-((Z)-octadec-9-enyloxy)ethyl)amine]
165.7 | CCCCCCCCCCCCCCOCCN(C)CCOCCCCCCCCCCCCCC [Compound 34, N-Methyl-N,N-bis(2-(tetradecyloxy)ethyl)amine]
126.5 | CCCCCC/C=C\CCCCCCCCOCCN(C)CCOCCCCCCCC/C=C\CCCCCC [Compound 35, N-Methyl-N,N-bis(2-((Z)-hexadec-9-enyloxy)ethyl)amine]
137.2 | CCCCCCCCCCC/C=C\CCCCCOCCN(C)CCOCCCCC/C=C\CCCCCCCCCCC [Compound 36, N-Methyl-N,N-bis(2-((Z)-octadec-6-enyloxy)ethyl)amine]
151.3 | CCCCCCCCCCCCCCCCCCOCCN(C)CCOCCCCCCCCCCCCCCCCCC [Compound 37, N-Methyl-N,N-bis(2-(octadecyloxy)ethyl)amine]
157.2 | CCCCCCCCCCCCCCCCO[C@@H]1CNC[C@H]1OCCCCCCCCCCCCCCCC [Compound 38, (3R,4R)-3,4-bis(Hexadecyloxy)pyrrolidine]
444.5 | CCCCCCCCCCCCCCCCCCO[C@@H]1CNC[C@H]1OCCCCCCCCCCCCCCCCCC [Compound 39, (3R,4R)-3,4-bis(Octadecyloxy)pyrrolidine]
133.8 | CCCC/C=C\CCCCCCCCO[C@@H]1CNC[C@H]1OCCCCCCCC/C=C\CCCC [Compound 40, (3R,4R)-3,4-bis((Z)-Tetradec-9-enyloxy)pyrrolidine]
134.4 | CCCCCC/C=C\CCCCCCCCCCO[C@@H]1CNC[C@H]1OCCCCCCCCCC/C=C\CCCCCC [Compound 41, (3R,4R)-3,4-bis((Z)-Octadec-11-enyloxy)pyrrolidine]

SMILES | Particle diameter of Preparetion [nm]
CCCCCCCC/C=C\CCCCCCCC(=O)O[C@@H]1CNC[C@H]1OC(=O)CCCCCCC/C=C\CCCCCCCC [Compound 9, (3R,4R)-Pyrrolidine-3,4-diyl di((Z)-octadec-9-enoate)] | 141.9
